Experimental findings from US20250090565A1, “Compositions and Methods for Treating Bleeding and Bleeding Disorders” (YewSavin, Inc., priority 2021, published 2025) are described below.

For one test, the system named is FVIII-deficient plasma. The test can be described thus: Thrombin generation assay (TGA) in FVIII-deficient plasma. The format is biochemical, human. As to conditions: for thrombin generation ETP dependence on concentration: 0.01 mg/ml, 0.1 mg/ml, and 0.4 mg/ml in FVIII-deficient plasma. The text has this: Thrombin generation is regarded as a significant indicator of the efficiency of blood clotting. Therefore, the thrombin generation assay (“TGA”) can be used as a proxy to estimate overall blood clotting efficiency of factor proteins and others agents from observing the clotting of plasma samples. The thrombin generation experiments were run using a microtiter plate fluorometer. Solvent systems consisting of a buffer, a fluorogenic substrate, and eight candidate compounds in inert solvents were added to pre-warmed citrated FVIII-deficient plasma along with tissue factor. The clotting reactions in the plasma-compound mixtures were initiated by adding calcium chloride solution to all the samples, and the fluorescence measurements recorded by the fluorimeter were compared against negative control (FVIII-deficient plasma without compounds or solvent system), vehicle control (FVIII-deficient plasma with solvent system only), and positive control (FVIII-deficient plasma mixed with regular plasma) reference measurements.
Each of the eight candidate compounds was tested via the TGA at three different concentrations.

A further test concerns heparinized rabbit blood. In words: Heparinized clotting test (in vitro). As to conditions: heparinized blood. The format is biochemical. Here is the method: The purpose of this experiment was to deduce a potential mechanism of action for chalcones in decreasing blood clotting and bleeding time. First, rabbit blood (200 μL) was added to the anticoagulant drug heparin (1.25 IU) in Eppendorf Tubes®. […] In untreated blood that is still inside a human or an animal, heparan sulfate that is found on cellular surfaces plays an equivalent role to heparin by forming a heparan-antithrombin complex and activating antithrombin.

For test [1], the system named is ex vivo Hemophilia A human blood. In words: Ca+2ACT whole blood coagulation time test, Hemophilia A human blood. The format is biochemical. As to conditions: for mean clotting time: Hemophilia A blood specimens. An excerpt:
While there are standardized tests such as Activated Partial Thromboplastin Time (“aPTT”) and Partial Thromboplastin Time (“PPT”) that measure blood clotting times (i.e., coagulation times), none of these tests are amenable to testing a small molecule drug, mainly due to the fact that the clotting agents added in these tests completely overcome the effect of the drug. A Calcium +2 ion Activated Coagulation Time test (“Ca+2ACT test”) was developed for measuring coagulation times that is devoid of the activators, thereby allowing drug candidates to be tested and verify their effects. The results described below use whole blood clotting assay and measure the coagulation of blood (i.e., blood's ability to clot), specifically, how much time is required for the clotting.
In this study, calcium chloride (“CaCl2”), a standard coagulating compound, is used as a control to compare the efficacy of various test samples. DMA is used as vehicle for various test samples. In a first study, a freshly prepared 5 μl test sample in DMA is added to a 100 μl blood specimen and then incubated in incubation slot of KC1 Delta machine Correlated Stago-Startmax for 37° C. for 3 min. For the control sample, 50 μl of CaCl2 solution is added, and timer started, to a 100 μl blood specimen to provide a baseline against the test sample. A stop watch, and automated electronic machine display, is used to measure the coagulation time in connection with an electronic signal provided the testing machine. Fresh citrated blood specimen from six healthy volunteers and six hemophilia patients, with initial standard citrate concentration in the collected blood of 3.5%, and “in cuvette” calcium +2 activation (by addition of CaCl2 solution) was obtained.
In this study, the effect of drug is measured by coagulation time of blood using the Ca+2ACT test, in presence of variable concentration of the drug in the test sample. The efficacy tests used 5 microliter of 40 mg/mL solution added to 155 microliter final volume in the clotting cuvette, corresponding to […] of the clotting mixture. For the dose dependence studies, we examined three persons. The twelve concentrations range chosen is 5 microliter of 0.05 mg/mL to 40 mg/mL, the vehicle being zero point concentration. This corresponds to mimimum concentration in the study of 1.66 microgram/mL or 1.66 ppm of the drug, not withstanding Vehicle Control of zero. […] FIG. 45 illustrates coagulation time versus concentration for the candidate molecule 1 for blood specimens from a second patient. FIG. 46 illustrates coagulation time versus concentration for the candidate molecule 1 for blood specimens from a third patient.
As discussed above, the effect is measured by coagulation time of blood using the Ca+2ACT test, in presence of variable concentration of the drug. Initial efficacy tests used 5 microliters of 40 mg/mL solution added to 155 microliter final volume in the clotting cuvette, corresponding to 1.29 mg/1000 mg of the clotting mixture. More recent tests used 10E-2 to 10E-22 as concentration range with 1E-2 interval. Samples were tested no later than eight hours after collection, and preferably, no later than four hours after collection. Often times, with very low and zero concentrations of clotting agents, although the instrument recorded a clotting time, the samples were fluid and partially coagulated at best. However, good fit was obtained at 1E-18 and good statistical difference was obtained at 1E-16, with significant statistical p-values at 10E-8 and higher concentrations, a very good range for drug design. […] The dose dependence study was performed using NDA solvent, and water in case of Eloctate™.

Consider “4-methoxyphenyl-3-(2,4-dimethoxyphenyl)-1-oxo-2-propene [HF-2021f]”, for which, in the test on FVIII-deficient plasma, the “thrombin generation ETP dependence on concentration” value (“thrombin generation ETP dependence” for short) is listed as “observed dose dependence”.
With `COc1ccc(C=CC(=O)c2c(O)cc(OC)cc2OC)cc1` [HF-2021b, 1-(2-hydroxy-4,6-dimethoxyphenyl)-3-(4-methoxyphenyl)prop-2-en-1-one], in the test with heparinized rabbit blood, the “activity in the heparinized blood assay” value is recorded as “active blood clotting agent”. Moreover, in the test with FVIII-deficient plasma, the “thrombin generation ETP dependence” value is “observed dose dependence”.
With `O=C(/C=C/c1ccc(O)cc1)c1ccc(O)cc1O` [HF-2021c, (E)-1-(2,4-dihydroxyphenyl)-3-(4-hydroxyphenyl)prop-2-en-1-one], the “thrombin generation ETP dependence” value in the test on FVIII-deficient plasma is listed as “observed dose dependence”.
Still for that read-out and setting: in the case of `COc1ccc(/C=C/C(=O)c2c(O)cc(O[C@@H]3O[C@H](CO[C@@H]4O[C@@H](C)[C@H](O)[C@@H](O)[C@H]4O)[C@@H](O)[C@H](O)[C@H]3O)cc2OC)cc1O` [HF-2021d, (E)-3-(3-hydroxy-4-methoxyphenyl)-1-[2-hydroxy-6-methoxy-4-[(2S,3R,4S,5S,6R)-3,4,5-trihydroxy-6-[[(2R,3R,4R,5R,6S) -3,4,5-trihydroxy-6-methyloxan-2-yl]oxymethyl]oxan-2-yl]oxyphenyl]prop-2-en-1-one] it was “observed dose dependence”.
For the compound `CC(C)=CCOc1ccc(/C=C/C(=O)c2ccc(OCC=C(C)C)cc2OCC(=O)O)cc1` [HF-2021e, 2-[5-(3-methylbut-2-enoxy)-2-[(E)-3-[4-(3-methylbut-2-enoxy)phenyl]prop-2-enoyl]phenoxy]acetic acid], in test [1] (0.1 mg/mL, vehicle control 247.61 seconds), the mean clotting time is 118.92 s. The “coagulation times compared with Eloctate” value in test [1] (HF2021e in NDA, Eloctate in water (FIG. 43)) was “higher than the coagulation times for Eloctate™”. In test [1] (concentration for 50% of the total effect on coagulation time (FIG. 43)), the “EC50 compared with Eloctate” value is listed as “lower than for Eloctate™”. For the same compound, the “coagulation time dependence on dose” value in test [1] (dose dependence study in NDA solvent (FIG. 43)) was “linear coagulation time dependence”. For the same compound, in the test on FVIII-deficient plasma, the “thrombin generation ETP dependence” value is recorded as “observed dose dependence”. In addition, the “thrombin concentration and ETP, combined dosing with HEMLIBRA” value with FVIII-deficient plasma (0.1 mg/mL combined with 25, 50, 75 μg/ml HEMLIBRA, versus each drug alone (FIG. 32, 33)) was “greater thrombin concentrations and ETPs than any individual dosage”; in the test on FVIII-deficient plasma (0.1 mg/ml + 25 μg/ml HEMLIBRA versus 75 μg/ml HEMLIBRA alone), “slightly more thrombin concentration and ETP”. Moreover, the “possible cut of the required dose of HEMLIBRA on concurrent use” value with FVIII-deficient plasma (0.1 mg/ml + 25 μg/ml HEMLIBRA, roughly same thrombin generation as 75 μg/ml) was 67%. In the test on FVIII-deficient plasma (0.4 mg/ml versus lowest tested HEMLIBRA concentration 25 μg/ml (FIG. 30, 31)), the “effect on thrombin concentration and ETP compared with HEMLIBRA” value is listed as “slightly lower effect”.
Consider `O=C(/C=C/c1ccc(O)cc1)c1c(O)cc(O)cc1O` [HF-2021g, (E)-3-(4-hydroxyphenyl)-1-(2,4,6-trihydroxyphenyl)prop-2-en-1-one], for which the “thrombin generation ETP dependence” value with FVIII-deficient plasma is recorded as “observed dose dependence”.
As for `O=C(C=Cc1ccc2c(c1)OCO2)c1ccccc1` [HF-2022a, 3-(1,3-Benzodioxol-5-yl)-1-phenyl-2-propen-1-one], the “thrombin generation ETP dependence” value with FVIII-deficient plasma is given as “observed dose dependence”.
In the case of `COc1ccc(C=CC(=O)c2c(O)cc(O)cc2O)cc1` [ISK-CH, Iso-Sakutanetin Chalcone], the mean clotting time in test [1] (1×10^−7 mg/mL, vehicle control 200.87 seconds) was 116.4 s.
